Assay results: publication PMC11530130, “Peripherally restricted PICK1 inhibitor mPD5 ameliorates pain behaviors in murine inflammatory and neuropathic pain models” (JCI Insight, 2024)
Values joined by “and” are separate entries in the source; they are usually repeats but may differ in a detail not shown here. Equal entries are not always repeated.

Assays:
[1] = tested on: PICK1-WT and PICK1-KO mice, SNI model; assay: SNI model, von Frey, PICK1-WT and PICK1-KO mice; type: in vivo, mouse; conditions: for effect on mechanical hypersensitivity (PWT): s.c.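 For von Frey paw withdrawal threshold, individual animals (Fig 5F): time points given in hours with 0 hours as the comparison point.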
Procedure: solution (0.05 mg/kg) injected s.c. 30 min before surgery (10 μL/g). For surgery, mice were anaesthetised with ketamine (100 mg/kg, i.p.) and xylazine (10 mg/kg, i.p.) (volume 10 µL/g) with 100 μL of 1% xylocaine solution infiltrated at the site of the incision. The distal trifurcation of the sciatic nerve was identified, and the tibial and common peroneal branches were ligated with polypropylene nonabsorbable 6-0 sutures (Ethicon) and 1 mm was cut out, leaving the sural branch intact. The wound was closed with sutures, and the animals were allowed to recover and returned to their cages. Two subcutaneous injections of buprenorphine (0.05 mg/kg) were performed with an 8 to 12 hours delay decreasing pain due to the surgery […]
The remaining SNI pain experiments were performed in-house using the following procedure.
SNI surgery was performed on the left hindleg of C57BL/6J male and female mice (Janvier, France) under 2% isoflurane anaesthesia. Skin on the lateral surface was incised between hip and knee followed by lengthwise division of the biceps femoris muscle leading to exposure of the three branches of the sciatic nerve. Sural branch was left intact, while the peroneal and tibial branches were ligated with a single surgical knot and axotomized distally of the ligation.
Wounds were closed with surgical glue or medical clips and animals were monitored daily for signs of stress or discomfort, but in all cases recovered uneventfully. […]
The skin wound was closed with two medical clips (Michel Suture Clips, 7.5x1.75 mm, Angthos, 12040-01). Post-surgical analgesia included s.c. injection of 5 mg/kg carprofen (Carprosan vet, 50 mg/mL mixed 1:25 in sterile ddH2O, Dechra, Le Vet Beheer B.V., Netherlands, Batch: 050520) right after surgery and the […]
following day. […]
The test battery of the CIBP model was carried out 45 or 90 min after morphine and mPD5 administration respectively to accommodate the peak efficacy […]
Mechanically evoked pain (von Frey test).
Unless otherwise specified, von Frey occurred as described in the following. Animals were habituated to the experimental room for a minimum of 60 min before initiation of the experiment. Mechanical paw withdrawal threshold (PWT) was determined by von Frey measurements of both hind paws. Von Frey filaments ranging from 0.04 to 2 g (g = gram- […]
Filaments in ascending order were applied to the frontocentral plantar surface of the hind paws.
Mice were placed in PVC plastic boxes (11.5 cm x 14 cm) on a wire mesh and allowed minimum 20 min habituation prior of experiment initiation. Each von Frey hair was applied five times with adequate resting periods between each application and number of withdrawals recorded. The withdrawal threshold was determined as the von Frey filament eliciting at least three positive trials out of the five applications in two consecutive filaments. A positive trial was defined as sudden paw withdrawal, flinching and/or paw licking induced by the filament.
For the CIBP model, two habituation sessions were performed on separated days with mice placed in the von Frey equipment for 1-1.5 hours in the presence of the experimenter on day one and random von Frey pocking with the 0.6 g filament on day two. Von Frey monofilaments (North Coast Touch Test, North Coast Medical, Inc.) with target forces of 0.04g, 0.07g, 0.16g, […]
down method” (PWT=10Xf+kδ) starting with the 0.6 g filament. Positive response was defined as; withdrawal, shaking or grooming of paw following a 2-3 second stimulation. In case, of unclear response, stimulus was repeated after 10-15 seconds.
For the STZ model, the mechanical threshold response of the injected mice was measured with […]
injection of test compounds on day 14, mechanical threshold was measured at 1 hour, 2 hours, 4 hours and 6 hours and again on day 15. […]
Thermally evoked pain (Hargreaves test).
A baseline Hargreaves test was performed on day 0 before inflammatory pain was induced as described in section 2.13. In the Hargreaves test, the mouse was placed in a container on a glass […]

[2] = Stability of mPD5 in PBS, 30 days at 5 °C and 25 °C, HPLC-UV-MS
Procedure: SUPPORTING INFORMATION: Method Section.
Sex as a biological variable.
All peptides were ordered from WuXI AppTec (Shanghai, China) or TAG-Copenhagen […]
Assessment of solubility and stability of mPD5.
Solubility was determined by visual inspection of samples dissolved in increasing concentration in 10 mM PBS as judged by full transparency and monophasic appearance.
Stability was addressed by […] for four concentrations (2, 20, 50, and 200 µM), by leaving mPD5 in PBS at 5 °C and 25 °C for 30 days followed by HPLC-UV-MS. […]
Superdex200 Increase 10/300.

[3] = 30 days 5°C, nominal conc. 2 μM
[4] = 30 days 5°C, nominal conc. 20 μM
[5] = 30 days 5°C, nominal conc. 50 μM
[6] = 30 days 5°C, nominal conc. 200 μM
[7] = 30 days 25°C, nominal conc. 2 μM
[8] = 30 days 25°C, nominal conc. 20 μM
[9] = 30 days 25°C, nominal conc. 50 μM
[10] = 30 days 25°C, nominal conc. 200 μM

## CCCCCCCCCCCCCC(=O)N(CCOCCOCCC(=O)N[C@@H](Cc1c[nH]cn1)C(=O)N[C@@H](Cc1c[nH]c2ccccc12)C(=O)N[C@@H](CC(C)C)C(=O)N[C@@H](CCCCN)C(=O)N[C@H](C(=O)O)C(C)C)CCOCCOCCC(=O)N[C@@H](Cc1c[nH]cn1)C(=O)N[C@@H](Cc1c[nH]c2ccccc12)C(=O)N[C@@H](CC(C)C)C(=O)N[C@@H](CCCCN)C(=O)N[C@H](C(=O)O)C(C)C [mPD5, myristoyl-NPEG4-(HWLKV)2]
[1]; PICK1-KO mice following SNI surgery
  effect on mechanical hypersensitivity (PWT): no effect on mechanical hypersensitivity
[1]; PICK1-KO, CONTRA, BL
  von Frey paw withdrawal threshold, individual animals (Fig 5F): 1.4 (4×) and 2 (2×)
[1]; PICK1-KO, CONTRA, time 0
  von Frey paw withdrawal threshold, individual animals (Fig 5F): 1 (3×) and 1.4 (3×)
[1]; PICK1-KO, CONTRA, time 1
  von Frey paw withdrawal threshold, individual animals (Fig 5F): 1.4 (3×) and 0.6 and 2 and 1
[1]; PICK1-KO, CONTRA, time 5
  von Frey paw withdrawal threshold, individual animals (Fig 5F): 1 and 1.4 (3×) and 2 (2×)
[1]; PICK1-KO, injured side, BL
  von Frey paw withdrawal threshold, individual animals (Fig 5F): 1.4 (4×) and 2 and 1
[1]; PICK1-KO, injured side, time 0
  von Frey paw withdrawal threshold, individual animals (Fig 5F): 0.6 and 0.07 and 0.4 (2×) and 0.16 (2×)
[1]; PICK1-KO, injured side, time 1
  von Frey paw withdrawal threshold, individual animals (Fig 5F): 0.4 (2×) and 0.16 (3×) and 0.07
[1]; PICK1-KO, injured side, time 5
  von Frey paw withdrawal threshold, individual animals (Fig 5F): 0.16 (2×) and 0.07 (3×) and 0.4
[1]; PICK1-WT, CONTRA, BL
  von Frey paw withdrawal threshold, individual animals (Fig 5F): 1 (2×) and 1.4 (4×)
[1]; PICK1-WT, CONTRA, time 0
  von Frey paw withdrawal threshold, individual animals (Fig 5F): 1.4 (4×) and 1 and 2
[1]; PICK1-WT, CONTRA, time 1
  von Frey paw withdrawal threshold, individual animals (Fig 5F): 1.4 (3×) and 1 (2×) and 2
[1]; PICK1-WT, CONTRA, time 5
  von Frey paw withdrawal threshold, individual animals (Fig 5F): 1.4
[1]; PICK1-WT, injured side, BL
  von Frey paw withdrawal threshold, individual animals (Fig 5F): 1 (2×) and 1.4 (3×) and 2
[1]; PICK1-WT, injured side, time 0
  von Frey paw withdrawal threshold, individual animals (Fig 5F): 0.07 (2×) and 0.16 (3×) and 0.4
[1]; PICK1-WT, injured side, time 1
  von Frey paw withdrawal threshold, individual animals (Fig 5F): 1.4 (4×) and 1 (2×)
[1]; PICK1-WT, injured side, time 5
  von Frey paw withdrawal threshold, individual animals (Fig 5F): 0.6 (2×) and 0.4 (3×) and 1
[1]; WT littermates following SNI surgery
  effect on mechanical hypersensitivity (PWT): significantly reduced
[2]; [3]
  Measured conc. mPD5: 0.5 µM
  UV-HPLC peak area: 37
  pH: 7.37
[2]; [4]
  Measured conc. mPD5: 17 µM
  UV-HPLC peak area: 1196
  pH: 7.40
[2]; [5]
  Measured conc. mPD5: 49 µM
  UV-HPLC peak area: 3347
  pH: 7.39
[2]; [6]
  Measured conc. mPD5: 194 µM
  UV-HPLC peak area: 6665
  pH: 7.37
[2]; [7]
  Measured conc. mPD5: 0.4 µM
  UV-HPLC peak area: 26
  pH: 7.37
[2]; [8]
  Measured conc. mPD5: 17 µM
  UV-HPLC peak area: 1161
  pH: 7.39
[2]; [9]
  Measured conc. mPD5: 48 µM
  UV-HPLC peak area: 3325
  pH: 7.41
[2]; [10]
  Measured conc. mPD5: 203 µM
  UV-HPLC peak area: 7005
  pH: 7.36
[2]; PBS, 30 days, 5°C and 25°C
  shelf stability: excellent shelf stability
